Experimental data: patent publication US9187472B2 (AbbVie Inc., priority 2012, dated 2015)

Experiments:
[1] = test system: PC3 cells; experiment: NAMPT Cell Proliferation Assay; format: cell-based; settings: Homo sapiens, PC-3, 120 h, 5 days incubation, cell viability by Cell Titer Glo
Procedure, shortened: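 Proliferation of PC3 cells treated 5 days with a 10-fold compound series (top 10 μM) was quantified by Cell Titer Glo luminescence; IC50s were fitted from percent inhibition.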

[2] = target: NAMPT (human, recombinant, C-terminally His-tagged) (Homo sapiens, UniProt P43490); experiment: Time-Resolved Fluorescence Resonance Energy Transfer (TR-FRET) Binding Assay of NAMPT; settings: without substrates; 6.8 nM NAMPT, 200 nM probe, 3 hours equilibration
NAMPT (human, recombinant, C-terminally His-tagged), sequence (P43490 whole entry): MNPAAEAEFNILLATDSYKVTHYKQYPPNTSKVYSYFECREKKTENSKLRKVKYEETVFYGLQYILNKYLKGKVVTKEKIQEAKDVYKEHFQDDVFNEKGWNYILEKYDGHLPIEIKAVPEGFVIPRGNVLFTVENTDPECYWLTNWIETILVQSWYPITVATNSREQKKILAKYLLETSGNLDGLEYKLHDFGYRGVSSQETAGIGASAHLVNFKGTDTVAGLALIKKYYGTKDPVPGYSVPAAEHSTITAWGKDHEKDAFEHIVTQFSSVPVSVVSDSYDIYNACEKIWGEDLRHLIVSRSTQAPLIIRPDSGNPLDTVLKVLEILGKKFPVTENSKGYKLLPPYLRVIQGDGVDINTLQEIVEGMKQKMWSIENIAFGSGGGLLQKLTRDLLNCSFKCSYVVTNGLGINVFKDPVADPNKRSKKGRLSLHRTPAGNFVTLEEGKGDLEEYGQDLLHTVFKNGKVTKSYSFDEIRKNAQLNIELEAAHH
Procedure, shortened: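 Competitive binding against an Oregon Green 488 tracer (200 nM), 6.8 nM His-tagged enzyme, 1 nM Tb antibody, 2% DMSO, 3 h at RT. IC50 derived from TR-FRET ratios.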

[3] = target: NAMPT (Homo sapiens, UniProt P43490); experiment: TR-FRET Binding Assay of NAMPT with PRPP; settings: with 200 μM PRPP and 2.5 mM ATP; 2 nM NAMPT, 2 nM probe, 16 hours equilibration
NAMPT, sequence (P43490 whole entry): as above
Procedure, shortened: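 Read-out is TR-FRET after a 16 h equilibration allowing possible compound modification by the enzyme. Final mix: 2 nM NAMPT, 2 nM probe, 1 nM Tb-anti-His antibody, 200 μM PRPP, 2.5 mM ATP, 2% DMSO.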

Compound | IC50 [1] [nM] | IC50 [2] [nM] | IC50 [3] [nM]
COC1(Cn2ncc(-c3ccc(C(=O)NCc4ccn5ccnc5c4)s3)c2C)CCCC(C)(C)C1 (stereo not drawn) [Example 273, N-(imidazo[1,2-a]pyridin-7-ylmethyl)-5-{1-[(1-methoxy-3,3-dimethylcyclohexyl)methyl]-5-methyl-1H-pyrazol-4-yl}thiophene-2-carboxamide] | 2.35 | 49.3 | 0.555
O=C(NCc1ccn2ccnc2c1)c1ccc(-c2cnn(CC3CCCOC3)c2)s1 (stereo not drawn) [Example 253, N-(imidazo[1,2-a]pyridin-7-ylmethyl)-5-[1-(tetrahydro-2H-pyran-3-ylmethyl)-1H-pyrazol-4-yl]thiophene-2-carboxamide] | 0.702 | 14.4 | 0.229
Cc1noc(C)c1CC(=O)N(C[C@H]1CCCO1)c1ncc(C(=O)NCc2ccn3ccnc3c2)s1 [Example 199, 2-{[(3,5-dimethyl-1,2-oxazol-4-yl)acetyl][(2R)-tetrahydrofuran-2-ylmethyl]amino}-N-(imidazo[1,2-a]pyridin-7-ylmethyl)-1,3-thiazole-5-carboxamide] | 0.539 | 9.76 | 0.311
CC[C@H](C)C(=O)N1CC=C(c2ccc(C(=O)NCc3ccn4ccnc4c3)o2)CC1 [Example 748, N-(imidazo[1,2-a]pyridin-7-ylmethyl)-5-{1-[(2S)-2-methylbutanoyl]-1,2,3,6-tetrahydropyridin-4-yl}furan-2-carboxamide] | 50.7 | 558 | 0.648
O=C(Nc1ccc(C(=O)NCCN2CCCC2=O)cc1)Nc1ccc2nccn2c1 [Example 15, 4-[(imidazo[1,2-a]pyridin-6-ylcarbamoyl)amino]-N-[2-(2-oxopyrrolidin-1-yl)ethyl]benzamide] | 3970 | 1760 | 0.841
Cn1cc(CCC(=O)N(C[C@H]2CCCO2)c2ncc(C(=O)NCc3ccn4ccnc4c3)s2)cn1 [Example 198, N-(imidazo[1,2-a]pyridin-7-ylmethyl)-2-{[3-(1-methyl-1H-pyrazol-4-yl)propanoyl][(2R)-tetrahydrofuran-2-ylmethyl]amino}-1,3-thiazole-5-carboxamide] | 1.84 | 32.5 | 0.225
Cc1cccc(C(=O)N2CCC(c3ccc(C(=O)NCc4ccn5ccnc5c4)cc3)C2)c1 (stereo not drawn) [Example 616, N-(imidazo[1,2-a]pyridin-7-ylmethyl)-4-[1-(3-methylbenzoyl)pyrrolidin-3-yl]benzamide] | 32.6 | 174 | 0.49
O=C(NCc1ccc2nccn2c1)c1ccc(C2=CCN(C(=O)CC3CCOCC3)CC2)cc1 [Example 93, N-(imidazo[1,2-a]pyridin-6-ylmethyl)-4-[1-(tetrahydro-2H-pyran-4-ylacetyl)-1,2,3,6-tetrahydropyridin-4-yl]benzamide] | 7.13 | 389 | 1.39
CC(C)CC(=O)N1CCC(c2ncc(C(=O)NCc3ccn4ccnc4c3)s2)C1 (stereo not drawn) [Example 806, N-(imidazo[1,2-a]pyridin-7-ylmethyl)-2-[1-(3-methylbutanoyl)pyrrolidin-3-yl]-1,3-thiazole-5-carboxamide] | 1400 | 2740 | 0.543
O=C(NCc1ccn2ccnc2c1)c1ccc(C2CCN(C(=O)CC3CC3)C2)cc1 (stereo not drawn) [Example 369, 4-[1-(cyclopropylacetyl)pyrrolidin-3-yl]-N-(imidazo[1,2-a]pyridin-7-ylmethyl)benzamide] | 738 | 429 | 0.337
CC(C)OC[C@H]1CN(c2ncc(C(=O)NCc3ccn4ccnc4c3)s2)C(=O)O1 [Example 256, N-(imidazo[1,2-a]pyridin-7-ylmethyl)-2-{(5R)-2-oxo-5-[(propan-2-yloxy)methyl]-1,3-oxazolidin-3-yl}-1,3-thiazole-5-carboxamide] | 9.84 | 126 | 0.266
O=C(NCc1ccc2ncnn2c1)c1ccc(-c2cnn(CC3COCCO3)c2)s1 (stereo not drawn) [Example 676, 5-[1-(1,4-dioxan-2-ylmethyl)-1H-pyrazol-4-yl]-N-([1,2,4]triazolo[1,5-a]pyridin-6-ylmethyl)thiophene-2-carboxamide] | 78.7 | 126 | 6.98
COCCNC(=O)N(CC1CCOCC1)c1ncc(C(=O)NCc2ccc3nccn3c2)s1 [Example 151, N-(imidazo[1,2-a]pyridin-6-ylmethyl)-2-{[(2-methoxyethyl)carbamoyl](tetrahydro-2H-pyran-4-ylmethyl)amino}-1,3-thiazole-5-carboxamide] | 76.1 | 7150 | 5.54
O=C(CC1CCCC1)Nc1ccc(NC(=O)NCc2ccn3ccnc3c2)cc1 [Example 118, 2-cyclopentyl-N-(4-{[(imidazo[1,2-a]pyridin-7-ylmethyl)carbamoyl]amino}phenyl)acetamide] | 18.2 | 35.2 | 0.234
O=C(NCc1ccn2ccnc2c1)c1ccc(C2(NC(=O)C3CCOCC3)CCC2)s1 [Example 473, N-(1-{5-[(imidazo[1,2-a]pyridin-7-ylmethyl)carbamoyl]thiophen-2-yl}cyclobutyl)tetrahydro-2H-pyran-4-carboxamide] | 7850 | > 10000 | 1.01
O=C(NCc1ccn2ccnc2c1)Nc1ccc(C2CCN(C(=O)c3ccc(F)cc3)CC2)cc1 [Example 721, 1-{4-[1-(4-fluorobenzoyl)piperidin-4-yl]phenyl}-3-(imidazo[1,2-a]pyridin-7-ylmethyl)urea] | 30.7 | 125 | 1.21
O=C(NCc1ccn2ccnc2c1)Nc1ccc(OC2CN(C(=O)c3ccccc3)C2)cc1 [Example 428, 1-{4-[(1-benzoylazetidin-3-yl)oxy]phenyl}-3-(imidazo[1,2-a]pyridin-7-ylmethyl)urea] | 67.5 | 87.1 | 0.258
O=C(NCc1ccn2ccnc2c1)c1ccc(C2CN(S(=O)(=O)c3ccccc3)C2)cc1 [Example 569, N-(imidazo[1,2-a]pyridin-7-ylmethyl)-4-[1-(phenylsulfonyl)azetidin-3-yl]benzamide] | 226 | 217 | 0.669
O=C(NCc1ccn2ccnc2c1)c1ccc(C2CCN(C(=O)c3ccccc3F)CC2)o1 [Example 735, 5-[1-(2-fluorobenzoyl)piperidin-4-yl]-N-(imidazo[1,2-a]pyridin-7-ylmethyl)furan-2-carboxamide] | 688 | 646 | 0.864
O=C(NCc1ccc2nccn2c1)c1cnc(N(C[C@H]2CCCO2)C(=O)C2CCOCC2)s1 [Example 147, N-(imidazo[1,2-a]pyridin-6-ylmethyl)-2-{[(2R)-tetrahydrofuran-2-ylmethyl](tetrahydro-2H-pyran-4-ylcarbonyl)amino}-1,3-thiazole-5-carboxamide] | 6.69 | 251 | 0.63
O=C(NCc1ccn2ccnc2c1)c1ccc(C2CCN(C(=O)CCC(F)(F)F)CC2)s1 [Example 574, N-(imidazo[1,2-a]pyridin-7-ylmethyl)-5-[1-(4,4,4-trifluorobutanoyl)piperidin-4-yl]thiophene-2-carboxamide] | 5.2 | 97.5 | 0.505
CC(C)CCNc1ncc(C(=O)NCc2ccc3nccn3c2)s1 [Example 87, N-(imidazo[1,2-a]pyridin-6-ylmethyl)-2-[(3-methylbutyl)amino]-1,3-thiazole-5-carboxamide] | 6580 | 2050 | 1.35
O=C(NCc1ccn2ccnc2c1)c1ccc(C2CCN(C(=O)c3ccc(F)cc3F)C2)cc1 (stereo not drawn) [Example 592, 4-[1-(2,4-difluorobenzoyl)pyrrolidin-3-yl]-N-(imidazo[1,2-a]pyridin-7-ylmethyl)benzamide] | 3.75 | 38.8 | 0.603
CC1(Cn2cc(-c3ccc(C(=O)NCc4ccn5ccnc5c4)o3)cn2)COC1 [Example 482, N-(imidazo[1,2-a]pyridin-7-ylmethyl)-5-{1-[(3-methyloxetan-3-yl)methyl]-1H-pyrazol-4-yl}furan-2-carboxamide] | 2.22 | 76.3 | 0.259
O=C(NCc1ccn2ccnc2c1)c1ccc(C2CCN(C(=O)C3CCOCC3)CC2)cc1 [Example 232, N-(imidazo[1,2-a]pyridin-7-ylmethyl)-4-[1-(tetrahydro-2H-pyran-4-ylcarbonyl)piperidin-4-yl]benzamide] | 9.27 | 396 | 0.277
O=C(NCc1ccn2ccnc2c1)c1cnc(N(C[C@H]2CCCO2)C(=O)CCc2ccno2)s1 [Example 194, N-(imidazo[1,2-a]pyridin-7-ylmethyl)-2-{[3-(1,2-oxazol-5-yl)propanoyl][(2R)-tetrahydrofuran-2-ylmethyl]amino}-1,3-thiazole-5-carboxamide] | 0.773 | 32.3 | 0.24
O=C(NCc1ccn2ccnc2c1)c1ccc(C2CCN(C(=O)Cc3cccc(F)c3)C2)s1 (stereo not drawn) [Example 761, 5-{1-[(3-fluorophenyl)acetyl]pyrrolidin-3-yl}-N-(imidazo[1,2-a]pyridin-7-ylmethyl)thiophene-2-carboxamide] | 27.7 | 94.4 | 0.394
